Reference: patent US20070275923A1, “CATIONIC PEPTIDES FOR siRNA [sequence] [sequence]” (NASTECH PHARMACEUTICAL COMPANY INC., priority 2006, published 2007)
Non-standard residues stand in square brackets, D forms with d. Residues, ends and D or L forms follow the SMILES beside them. Mal = not defined here

Assays:
[1] = test system: Mouse tail fibroblast (MTF) cells; experiment: siRNA cell-uptake and MFI measured by FACS after peptide-mediated transfection of labeled siRNA; assay type: cell-based; details: for intracellular delivery of siRNA (verbal conclusion from cell-uptake and cell viability): conclusion drawn from Table 3; for % Cell-Uptake / MFI: 200 nM labeled siRNA; for % Cell-Uptake: % of total cells with intracellular labeled siRNA; for MFI: relative value, higher = more labeled siRNA entered the cell
Protocol: SiRNA cell uptake was measured by FACS.
For the instant example, cell-uptake, mean fluorescent intensity (MFI) and cell viability was measured for each peptide. siRNA cell-uptake was measured by the presence of intracellular labeled siRNA. The cell-uptake assay determined the percentage of cells that contain the labeled siRNA. Mean Fluorescence Intensity (MFI) was used to determine the relative mean quantity of labeled siRNA that entered the cells.
A non-transfection, siRNA alone, control was also performed.
Within Table 3, “ND” means no data.

in vitro = details: C57BL/6J, mouse, mouse tail fibroblast (MTF) cells
Protocol: (§1) Mouse tail fibroblast (MTF) cells were derived from the tails of C57BL/6J mice. Tails were removed, immersed in 70% ethanol and then cut into small sections with a razor blade. The sections were washed three times with PBS and then incubated in a shaker at 37° C. with 0.5 mg/mL collagenase, 100 units/mL penicillin and 100 μg/mL streptomycin to disrupt tissue. Tail sections were then cultured in complete media (Dulbecco's Modified […] Medium with 20% FBS, 1 mM sodium pyruvate, nonessential amino acids and 100 units/mL penicillin and 100 μg/mL streptomycin) until cells were established. Cells were cultured at 37° C., 5% CO2 in complete media as outlined above.
(§2) Cells were be plated per well in a microtiter plate the day before transfection in complete media. The siRNA was be labeled, for example with a FAM, Alexa488, Alexa647 or Cy-5 conjugate. The cationic polymer peptide and siRNA were mixed in the microtiter plate complex with cells previously with OptiMEM. 7-AAD was added to each transfection to measure cell viability. Cells were transfected for three hours at 37° C., 5% CO2. The transfection mixture was removed and the cells were washed with TE buffer for about 10 minutes at 37° C., 5% CO2. Transfected cells were transferred to a V bottom plate and centrifuged. The TE buffer was removed and the transfected cells were resuspended in fluorescence activated cell sorting (FACS) buffer.
(§3) A non-transfection, siRNA alone, control was also performed. The peptide PN183 served herein as a positive cell-uptake control.
(§4) Cell-uptake is expressed as a percentage of the total cells with intracellular labeled siRNA. Cell Viability is also expressed as a percentage where 100% represents 100% viability. The MFI value is a relative value with a higher MFI value indicating a greater amount of labeled siRNA entered the cell. Within Table 3, “ND” means no data.

[2] = test system: Mouse tail fibroblast (MTF) cells; experiment: in vitro; details: 200 nM siRNA, 100% represents 100% viability
Protocol: as §1, §2, §3, §4

## N=C(N)NCCC[C@@H](N)C(=O)N[C@@H](CCCNC(=N)N)C(=O)N[C@H](CCCNC(=N)N)C(=O)N[C@@H](CCCNC(=N)N)C(=O)N[C@H](CCCNC(=N)N)C(=O)N[C@@H](CCCNC(=N)N)C(=O)N[C@H](CCCNC(=N)N)C(=O)N[C@@H](CCCNC(=N)N)C(=O)N[C@H](CCCNC(=N)N)C(=O)N[C@@H](CCCNC(=N)N)C(=O)N[C@H](CCCNC(=N)N)C(=O)N[C@@H](CCCNC(=N)N)C(=O)N[C@H](CCCNC(=N)N)C(=O)N[C@@H](CCCNC(=N)N)C(=O)N[C@H](CCCNC(=N)N)C(=O)N[C@@H](CCCNC(=N)N)C(=O)N[C@H](CCCNC(=N)N)C(=O)N[C@@H](CCCNC(=N)N)C(=O)N[C@H](CCCNC(=N)N)C(=O)N[C@@H](CCCNC(=N)N)C(N)=O [PN912, NH2-(Xaa-Arg)10-amide] (H-[dR]R[dR]R[dR]R[dR]R[dR]R[dR]R[dR]R[dR]R[dR]R[dR]R-NH2)
[1]
  intracellular delivery of siRNA (verbal conclusion from cell-uptake and cell viability): effective intracellular delivery of siRNA without negatively impacting cell viability
[1]; peptide concentration 1 μM
  % Cell-Uptake: 61.2%
  MFI: 4.32
[1]; peptide concentration 10 μM
  % Cell-Uptake: 73.3%
  MFI: 4.72
[1]; peptide concentration 100 μM
  % Cell-Uptake: 86.2%
  MFI: 5.41
In vitro
  viability at 3 h, 1 µM: 96.9%
  viability at 3 h, 10 µM: 96.1%
  viability at 3 h, 100 µM: 90%

## PEG (2 KDa)-Mal-(Lys)10-amide ({PEG 2 kDa-Mal}-KKKKKKKKKK-NH2; reading uncertain; also: printed as PEG (2 KDa)-Mal-(Lys)10-amide) [PN933]
[1]; peptide concentration 1 μM
  % Cell-Uptake: 0.3%
[1]; peptide concentration 10 μM
  % Cell-Uptake: 0.5%
[1]; peptide concentration 100 μM
  % Cell-Uptake: 0.2%
[2]; peptide concentration 1 μM
  % Cell Viability: 97.7%
[2]; peptide concentration 10 μM
  % Cell Viability: 98%
[2]; peptide concentration 100 μM
  % Cell Viability: 98%

## PEG (2 KDa)-Mal-(Lys)15-amide ({PEG 2 kDa-Mal}-KKKKKKKKKKKKKKK-NH2; reading uncertain; also: printed as PEG (2 KDa)-Mal-(Lys)15-amide) [PN930]
[1]; peptide concentration 1 μM
  % Cell-Uptake: 0.2%
[1]; peptide concentration 10 μM
  % Cell-Uptake: 1.5%
[1]; peptide concentration 100 μM
  % Cell-Uptake: 0.8%
[2]; peptide concentration 1 μM
  % Cell Viability: 97.9%
[2]; peptide concentration 10 μM
  % Cell Viability: 97.2%
[2]; peptide concentration 100 μM
  % Cell Viability: 97.8%

## PEG (2 KDa)-Mal-(Lys)20-amide ({PEG 2 kDa-Mal}-KKKKKKKKKKKKKKKKKKKK-NH2; reading uncertain) [PN926]
[1]; peptide concentration 1 μM
  % Cell-Uptake: 0.9%
[1]; peptide concentration 10 μM
  % Cell-Uptake: 1.4%
[1]; peptide concentration 100 μM
  % Cell-Uptake: 1.2%
[2]; peptide concentration 1 μM
  % Cell Viability: 97.9%
[2]; peptide concentration 10 μM
  % Cell Viability: 98.3%
[2]; peptide concentration 100 μM
  % Cell Viability: 98.3%

## PEG (2 KDa)-Mal-(Lys)25-amide [PN925]
[1]; peptide concentration 1 μM
  % Cell-Uptake: 5.2%
[1]; peptide concentration 10 μM
  % Cell-Uptake: 2.9%
[1]; peptide concentration 100 μM
  % Cell-Uptake: 2.2%
[2]; peptide concentration 1 μM
  % Cell Viability: 96.6%
[2]; peptide concentration 10 μM
  % Cell Viability: 97.8%
[2]; peptide concentration 100 μM
  % Cell Viability: 95.8%

## PEG (2 KDa)-Mal-(Lys-His)10-amide ({PEG 2 kDa-Mal}-KHKHKHKHKHKHKHKHKHKH-NH2; reading uncertain) [PN939]
[1]
  intracellular delivery of siRNA (verbal conclusion from cell-uptake and cell viability): effective intracellular delivery of siRNA without negatively impacting cell viability
[1]; peptide concentration 1 μM
  % Cell-Uptake: 66%
  MFI: 3.3
[1]; peptide concentration 10 μM
  % Cell-Uptake: 97%
  MFI: 35.1
[1]; peptide concentration 100 μM
  % Cell-Uptake: 97.3%
  MFI: 3.33
[2]; peptide concentration 1 μM
  % Cell Viability: 98.6%
[2]; peptide concentration 10 μM
  % Cell Viability: 99.7%
[2]; peptide concentration 100 μM
  % Cell Viability: 99.1%

## PEG (2 KDa)-Mal-(Lys-His)15-amide ({PEG 2 kDa-Mal}-KHKHKHKHKHKHKHKHKHKHKHKHKHKHKH-NH2; reading uncertain) [PN936]
[1]
  intracellular delivery of siRNA (verbal conclusion from cell-uptake and cell viability): effective intracellular delivery of siRNA without negatively impacting cell viability
[1]; peptide concentration 1 μM
  % Cell-Uptake: 37.7%
  MFI: 2.66
[1]; peptide concentration 10 μM
  % Cell-Uptake: 55.3%
  MFI: 5.86
[1]; peptide concentration 100 μM
  % Cell-Uptake: 25.9%
[2]; peptide concentration 1 μM
  % Cell Viability: 97.5%
[2]; peptide concentration 10 μM
  % Cell Viability: 98.1%
[2]; peptide concentration 100 μM
  % Cell Viability: 28.7%

## PEG (10 KDa)-Mal-(Lys)10-amide ({PEG 10 kDa-Mal}-KKKKKKKKKK-NH2; reading uncertain; also: printed as PEG (10 KDa)-Mal-(Lys)10-amide) [PN934]
[1]; peptide concentration 1 μM
  % Cell-Uptake: 0.2%
[1]; peptide concentration 10 μM
  % Cell-Uptake: 1.1%
[1]; peptide concentration 100 μM
  % Cell-Uptake: 0.3%
[2]; peptide concentration 1 μM
  % Cell Viability: 98.3%
[2]; peptide concentration 10 μM
  % Cell Viability: 96.2%
[2]; peptide concentration 100 μM
  % Cell Viability: 97.4%

## PEG (10 KDa)-Mal-(Lys)15-amide ({PEG 10 kDa-Mal}-KKKKKKKKKKKKKKK-NH2; reading uncertain; also: printed as PEG (10 KDa)-Mal-(Lys)15-amide) [PN931]
[1]; peptide concentration 1 μM
  % Cell-Uptake: 0.6%
[1]; peptide concentration 10 μM
  % Cell-Uptake: 0.7%
[1]; peptide concentration 100 μM
  % Cell-Uptake: 0.5%
[2]; peptide concentration 1 μM
  % Cell Viability: 97%
[2]; peptide concentration 10 μM
  % Cell Viability: 97.7%
[2]; peptide concentration 100 μM
  % Cell Viability: 98.4%

## PEG (10 KDa)-Mal-(Lys)20-amide ({PEG 10 kDa-Mal}-KKKKKKKKKKKKKKKKKKKK-NH2; reading uncertain) [PN928]
[1]; peptide concentration 1 μM
  % Cell-Uptake: 3.9%
[1]; peptide concentration 10 μM
  % Cell-Uptake: 2.3%
[1]; peptide concentration 100 μM
  % Cell-Uptake: 3.2%
[2]; peptide concentration 1 μM
  % Cell Viability: 97.3%
[2]; peptide concentration 10 μM
  % Cell Viability: 98%
[2]; peptide concentration 100 μM
  % Cell Viability: 98.2%

## PEG (10 KDa)-Mal-(Lys)25-amide [PN927]
[1]; peptide concentration 1 μM
  % Cell-Uptake: 1.6%
[1]; peptide concentration 10 μM
  % Cell-Uptake: 0.8%
[1]; peptide concentration 100 μM
  % Cell-Uptake: 0.7%
[2]; peptide concentration 1 μM
  % Cell Viability: 95.6%
[2]; peptide concentration 10 μM
  % Cell Viability: 97%
[2]; peptide concentration 100 μM
  % Cell Viability: 97.3%

## PEG (10 KDa)-Mal-(Lys-His)10-amide ({PEG 10 kDa-Mal}-KHKHKHKHKHKHKHKHKHKH-NH2; reading uncertain) [PN940]
[1]
  intracellular delivery of siRNA (verbal conclusion from cell-uptake and cell viability): effective intracellular delivery of siRNA without negatively impacting cell viability
[1]; peptide concentration 1 μM
  % Cell-Uptake: 69.9%
  MFI: 4.81
[1]; peptide concentration 10 μM
  % Cell-Uptake: 70.6%
  MFI: 2.54
[2]; peptide concentration 1 μM
  % Cell Viability: 99.1%
[2]; peptide concentration 10 μM
  % Cell Viability: 98.4%

## PEG (10 KDa)-Mal-(Lys-His)15-amide ({PEG 10 kDa-Mal}-KHKHKHKHKHKHKHKHKHKHKHKHKHKHKH-NH2; reading uncertain) [PN937]
[1]
  intracellular delivery of siRNA (verbal conclusion from cell-uptake and cell viability): effective intracellular delivery of siRNA without negatively impacting cell viability
[1]; peptide concentration 1 μM
  % Cell-Uptake: 54.7%
  MFI: 3.18
[1]; peptide concentration 10 μM
  % Cell-Uptake: 92.6%
  MFI: 6.41
[2]; peptide concentration 1 μM
  % Cell Viability: 99%
[2]; peptide concentration 10 μM
  % Cell Viability: 99.4%

## PEG (10 KDa)-Mal-Trp-(Lys)30-amide (WKKKKKKKKKKKKKKKKKKKKKKKKKKKKKK; PEG 10 kDa maleimide; C-terminal amide) [PN986]
[1]; peptide concentration 1 μM
  % Cell-Uptake: 0.6%
[1]; peptide concentration 10 μM
  % Cell-Uptake: 0.8%
[1]; peptide concentration 100 μM
  % Cell-Uptake: 2.5%
[2]; peptide concentration 1 μM
  % Cell Viability: 97.4%
[2]; peptide concentration 10 μM
  % Cell Viability: 97.2%
[2]; peptide concentration 100 μM
  % Cell Viability: 93.6%
